Where “and” joins values, the source holds several entries; their conditions need not be identical. Identical values can stand only once. Like-named read-outs stand apart in the source and are kept apart here.
Assays:
σ1 receptor [1] = conditions: cited from earlier work; for uptake in the brain: i.v., female CD1-mice
[2] = cited from earlier work
σ2 receptor [3] = target: σ2 receptor; parameters: method as in PMID 22136765, PMID 21126878, PMID 21072511, PMID 19791807, PMID 21618432; conditions: cited from earlier work
σ1 receptor [4] = conditions: cited from earlier work
σ1 receptor [5] = assay: σ1 receptor affinity (receptor binding); conditions: ratio Ki(σ2)/Ki(σ1)
σ1 receptor [6] = conditions: in Figure 5; cited from earlier work
σ2 receptor [7] = conditions: in Figure 5; cited from earlier work
human serum albumin = human serum albumin (Homo sapiens, UniProt P02768); assay: plasma protein binding by HPLC on human serum albumin stationary phase; format: in vitro ADME; conditions: stationary phase coated with human serum albumin
Experimental: Plasma protein binding was recorded by HPLC analysis using a stationary phase coated with human serum albumin. The resulting retention times correlate with binding to human serum albumin [42].

[8] = metabolic stability with mouse liver microsomes and NADPH; conditions: LC-MS
Experimental: After an incubation period of 90 min, the amount of remaining test compound was determined by LC-MS [42, 43, 44].

[9] = logD7.4 by micro-shake flask method; format: physicochemical; conditions: n-octanol/MOPS buffer pH 7.4, determined by LC-MS
Experimental: The lipophilicity of the homologous fluoroalkyl derivatives 1–4 was determined by the micro-shake flask method. After the distribution of the compounds between an n-octanol layer and MOPS buffer (pH 7.4), the amount of the compound in the buffer layer was determined by mass spectrometry. The recorded logD7.4 values were compared with the logD7.2 values determined by the distribution of the analogous ^18F-labeled compounds [^18F]1–[^18F]4 between n-octanol and phosphate-buffered saline, pH 7.2. The logD7.2 values were calculated from the distribution of radioactivity in both layers.

[10] = pH 7.2; cited from earlier work
σ1 receptor [11] = conditions: cited from earlier work; for SUV120min p.i. as % of SUV5min p.i.: piglet brain; for SUV120min p.i. as % of SUV5min p.i. / whole-brain distribution volume VT: baseline; for VT, cerebellum / VT, colliculi / VT, cortex / VT, hippocampus / VT, midbrain / VT, striatum / VT, thalamus: piglet, Logan plot, baseline conditions, N = 3; for whole-brain distribution volume VT / decrease in VT upon SA 4503 blockade of σ1 receptors / standardized uptake value (SUV) in brain: piglets; for whole-brain distribution volume VT: two-tissue compartment modeling, metabolite-corrected plasma input; for decrease in VT upon SA 4503 blockade of σ1 receptors: whole brain, Logan plot analysis; for standardized uptake value (SUV) in brain: within 3 min after injection
σ1 receptor [12] = conditions: rhesus monkey, 1-tissue compartment model, baseline conditions, N = 1; cited from earlier work
[13] = rhesus monkey, in vivo; cited from earlier work
σ1 receptor [14] = conditions: healthy volunteers and HD patients, therapeutic doses; cited from earlier work
dopamine D2/D3 receptors = conditions: healthy volunteers and HD patients; cited from earlier work
σ1 receptor [15] = conditions: cited from earlier work; for VT: healthy volunteers
[16] = racemic spirocyclic piperidines, read-out: Ki(σ1)
[17] = pure fluspidine enantiomers, read-out: Ki, σ1 receptor affinity

Sequence of human serum albumin (P02768 25-609): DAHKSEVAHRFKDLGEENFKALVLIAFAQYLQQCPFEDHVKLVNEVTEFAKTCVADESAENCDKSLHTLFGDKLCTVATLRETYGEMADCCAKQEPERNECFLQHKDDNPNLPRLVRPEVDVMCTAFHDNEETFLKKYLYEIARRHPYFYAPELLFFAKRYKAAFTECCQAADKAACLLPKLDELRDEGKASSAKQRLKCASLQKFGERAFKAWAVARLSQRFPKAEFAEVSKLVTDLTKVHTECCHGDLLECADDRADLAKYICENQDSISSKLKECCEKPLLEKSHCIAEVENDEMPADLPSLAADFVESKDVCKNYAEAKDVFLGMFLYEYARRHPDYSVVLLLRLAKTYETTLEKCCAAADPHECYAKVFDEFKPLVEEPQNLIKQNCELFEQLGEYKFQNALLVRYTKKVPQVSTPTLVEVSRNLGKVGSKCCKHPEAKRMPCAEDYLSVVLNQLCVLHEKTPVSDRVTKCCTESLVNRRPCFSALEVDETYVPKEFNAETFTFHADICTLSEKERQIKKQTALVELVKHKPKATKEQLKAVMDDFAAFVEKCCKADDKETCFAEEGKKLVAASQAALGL

Structure (SMILES): FCCC1OC2(CCN(Cc3ccccc3)CC2)c2ccccc21 (racemic) [rac-[^18F]2]
- uptake in the brain (σ1 receptor [1]; 5 min p.i.): 3.88 % ID/g
- uptake in the brain (σ1 receptor [1]; 30 min p.i.): 4.71 % ID/g
- uptake in the brain (σ1 receptor [1]; 120 min p.i.): 2.82 % ID/g
- Ratio of activity concentration, cerebellum vs. olfactory bulb (σ1 receptor [1]; mouse, 45 min p.i., N = 1): 1.75
- Ratio of activity concentration, cortex vs. olfactory bulb (σ1 receptor [1]; mouse, 45 min p.i., N = 1): 1.45
- Ratio of activity concentration, facial nucleus vs. olfactory bulb (σ1 receptor [1]; mouse, 45 min p.i., N = 1): 4.69
- Ratio of activity concentration, hippocampus vs. olfactory bulb (σ1 receptor [1]; mouse, 45 min p.i., N = 1): 1.21
- Ratio of activity concentration, striatum vs. olfactory bulb (σ1 receptor [1]; mouse, 45 min p.i., N = 1): 1.11
- Ratio of activity concentration, superficial grey layer of superior colliculus vs. olfactory bulb (σ1 receptor [1]; mouse, 45 min p.i., N = 1): 1.57
- Ratio of activity concentration, thalamus vs. olfactory bulb (σ1 receptor [1]; mouse, 45 min p.i., N = 1): 1.24
- activity in brain due to unchanged radioligand ([2]; brains of CD-1 mice, 60 min after intravenous administration): 98%
- proportion of unchanged PET tracer in plasma ([2]; mouse, in vivo, iv): 75%

Structure (SMILES): FCCC1OC2(CCN(Cc3ccc(F)cc3)CC2)c2ccccc21 (stereo not drawn) [compound 5]
- Ki (σ2 receptor [3]): 0.481 µM
- Ki (σ1 receptor [4]; [16]): 0.57 nM
- σ1/σ2 Selectivity (σ1 receptor [5]): 844

Structure (SMILES): CCCCN1CCC2(CC1)OC(CCF)c1ccccc12 (stereo not drawn) [compound 8]
- Ki (σ2 receptor [3]): 0.878 µM
- Ki (σ1 receptor [4]; [16]): 3.9 nM
- σ1/σ2 Selectivity (σ1 receptor [5]): 225

Structure (SMILES): COc1cc(CCN2CCN(CCCc3ccccc3)CC2)ccc1OCC[18F] [[^18F]FE-SA 4503]
- IC50 (σ1 receptor [6]): 6.5 nM
- IC50 (σ2 receptor [7]): 2.1 nM

Structure (SMILES): FCCC1OC2(CCN(CC3CCCCC3)CC2)c2ccccc21 (stereo not drawn) [compound 6]
- Ki (σ2 receptor [3]): 0.057 µM
- Ki (σ1 receptor [4]; [16]): 0.71 nM
- σ1/σ2 Selectivity (σ1 receptor [5]): 80

Structure (SMILES): FCC1OC2(CCN(Cc3ccccc3)CC2)c2ccccc21 (stereo not drawn) [compound 1]
- fraction unbound (human serum albumin): 0.16
- In Vitro Metabolism—Intact Compd. after 90 min [8]: 53% and 53 ± 3.9%
- logD [9]: 2.8 ± 0.04
- logD7.2 PET Tracer [10]: 2.39 ± 0.04
- Ki (σ2 receptor [3]): 0.55 µM
- Ki (σ1 receptor [4]; [16]): 0.74 nM
- σ1/σ2 Selectivity (σ1 receptor [5]): 743

Structure (SMILES): FCCCC1OC2(CCN(Cc3ccccc3)CC2)c2ccccc21 (stereo not drawn) [compound 3]
- fraction unbound (human serum albumin): 0.09
- In Vitro Metabolism—Intact Compd. after 90 min [8]: 33% and 33 ± 7.9%
- logD [9]: 3.6 ± 0.12
- logD7.2 PET Tracer [10]: 2.78 ± 0.06
- Ki (σ2 receptor [3]): 0.837 µM
- Ki (σ1 receptor [4]; [16]): 1.4 nM
- σ1/σ2 Selectivity (σ1 receptor [5]): 598

Structure (SMILES): [18F]CC[C@H]1OC2(CCN(Cc3ccccc3)CC2)c2ccccc21 [(R)-[^18F]2]
- SUV120min p.i. as % of SUV5min p.i. (σ1 receptor [11]): ~ 80%
- VT, cerebellum (σ1 receptor [11]): 140 mL/g
- VT, colliculi (σ1 receptor [11]): 123 mL/g
- VT, cortex (σ1 receptor [11]): 67.8 to 98.4 mL/g
- VT, hippocampus (σ1 receptor [11]): 95.2 mL/g
- VT, midbrain (σ1 receptor [11]): 132 mL/g
- VT, striatum (σ1 receptor [11]): 100 mL/g
- VT, thalamus (σ1 receptor [11]): 106 mL/g
- whole-brain distribution volume VT (σ1 receptor [11]): 133 mL/g
- decrease in VT upon SA 4503 blockade of σ1 receptors (σ1 receptor [11]): −89%
- standardized uptake value (SUV) in brain (σ1 receptor [11]): about 2
- VT, amygdala (σ1 receptor [12]): 153 mL/g
- VT, caudate (σ1 receptor [12]): 181 mL/g
- VT, cerebellum (σ1 receptor [12]): 175 mL/g
- VT, cortex (σ1 receptor [12]): 174 to 291 mL/g
- VT, hippocampus (σ1 receptor [12]): 193 mL/g
- VT, putamen (σ1 receptor [12]): 199 mL/g
- VT, thalamus (σ1 receptor [12]): 128 mL/g
- fraction of unchanged PET tracer in plasma [13]: > 30%

Structure (SMILES): CCCN1CCC(c2cccc(S(C)(=O)=O)c2)CC1 [pridopidine, 4-[3-(methylsulfonyl)phenyl]-1-propylpiperidine]
- binding to the σ1 receptor in the brain (occupancy study) (σ1 receptor [14]): selective binding
- occupancy of dopamine D2/D3 receptors (dopamine D2/D3 receptors): minimal occupancy

Structure (SMILES): FCC[C@H]1OC2(CCN(Cc3ccccc3)CC2)c2ccccc21 [(R)-2]
- Ki (σ1 receptor [4]; [17]): 0.57 nM

Structure (SMILES): CCCCCCCCN1CCC2(CC1)OC(CCF)c1ccccc12 (stereo not drawn) [compound 9]
- Ki (σ2 receptor [3]): 0.118 µM
- Ki (σ1 receptor [4]; [16]): 15 nM
- σ1/σ2 Selectivity (σ1 receptor [5]): 7.9

Structure (SMILES): FCCC1OC2(CCN(Cc3ccccc3)CC2)c2ccccc21 (stereo not drawn) [compound 2]
- fraction unbound (human serum albumin): 0.12
- In Vitro Metabolism—Intact Compd. after 90 min [8]: 34% and 34 ± 8.8%
- logD [9]: 3.33 ± 0.07
- logD7.2 PET Tracer [10]: 2.57 ± 0.32
- Ki (σ2 receptor [3]): 0.785 µM
- Ki (σ1 receptor [4]; [16]): 0.59 nM
- σ1/σ2 Selectivity (σ1 receptor [5]): 1331

Structure (SMILES): COc1ccc(CCN2CCN(CCCc3ccccc3)CC2)cc1OC [cutamesine, 1-[2-(3,4-dimethoxyphenyl)ethyl]-4-(3-phenylpropyl)piperazine]
- IC50 (σ1 receptor [6]): 4.6 nM
- IC50 (σ2 receptor [7]): 63.1 nM

Structure (SMILES): [18F]CC[C@@H]1OC2(CCN(Cc3ccccc3)CC2)c2ccccc21 [(S)-[^18F]2]
- SUV120min p.i. as % of SUV5min p.i. (σ1 receptor [11]): ~ 50%
- VT, cerebellum (σ1 receptor [11]): 14.8 mL/g
- VT, colliculi (σ1 receptor [11]): 15.2 mL/g
- VT, cortex (σ1 receptor [11]): 9.8 to 13.1 mL/g
- VT, hippocampus (σ1 receptor [11]): 13.5 mL/g
- VT, midbrain (σ1 receptor [11]): 15.4 mL/g
- VT, striatum (σ1 receptor [11]): 13.5 mL/g
- VT, thalamus (σ1 receptor [11]): 14.1 mL/g
- whole-brain distribution volume VT (σ1 receptor [11]): 13 mL/g
- decrease in VT upon SA 4503 blockade of σ1 receptors (σ1 receptor [11]): −55%
- standardized uptake value (SUV) in brain (σ1 receptor [11]): about 2
- VT, amygdala (σ1 receptor [12]): 14.6 mL/g
- VT, caudate (σ1 receptor [12]): 13.5 mL/g
- VT, cerebellum (σ1 receptor [12]): 13.6 mL/g
- VT, cortex (σ1 receptor [12]): 14.6 to 19.6 mL/g
- VT, hippocampus (σ1 receptor [12]): 16.4 mL/g
- VT, putamen (σ1 receptor [12]): 14.9 mL/g
- VT, thalamus (σ1 receptor [12]): 12.2 mL/g
- VT (σ1 receptor [15]; frontal cortex): 21 mL/g
- VT (σ1 receptor [15]; striatum): 19 mL/g
- free fraction in blood plasma fp (σ1 receptor [15]; human): 0.023
- fraction of unchanged PET tracer in plasma [13]: > 30%

Structure (SMILES): CC(C)=CCN1CCC2(CC1)OC(CCF)c1ccccc12 (stereo not drawn) [compound 10]
- Ki (σ2 receptor [3]; cells printed in µM): > 1 µM
- Ki (σ1 receptor [4]; [16]): 1.5 nM

Structure (SMILES): FCC[C@@H]1OC2(CCN(Cc3ccccc3)CC2)c2ccccc21 [(S)-2]
- Ki (σ1 receptor [4]; [17]): 2.3 nM

Structure (SMILES): FCCCCC1OC2(CCN(Cc3ccccc3)CC2)c2ccccc21 (stereo not drawn) [compound 4]
- fraction unbound (human serum albumin): 0.05
- In Vitro Metabolism—Intact Compd. after 90 min [8]: 28% and 28 ± 4.5%
- logD [9]: 3.71 ± 0.14
- logD7.2 PET Tracer [10]: 3.11 ± 0.14
- Ki (σ2 receptor [3]): 0.489 µM
- Ki (σ1 receptor [4]; [16]): 1.2 nM
- σ1/σ2 Selectivity (σ1 receptor [5]): 408

Structure (SMILES): CC(c1ccccc1)N1CCC2(CC1)OC(CCF)c1ccccc12 (stereo not drawn) [compound 7]
- Ki (σ2 receptor [3]; cells printed in µM): > 1 µM
- Ki (σ1 receptor [4]; [16]): 1 nM
- σ1/σ2 Selectivity (σ1 receptor [5]): >1000

Structure (SMILES): COc1cc(CCN2CCN(CCCc3ccccc3)CC2)ccc1OC[18F] [[^18F]FM-SA 4503]
- Ki (σ1 receptor [6]): 6.4 nM
- Ki (σ2 receptor [7]): 250 nM
